Data set [1] is described as follows: Cytotoxicity test upon human embryonic cells (MTT). Format: cell-based. Conditions: human, MRC-5 human diploid embryonic lung cells; MRC-5, five days, MTT; mean of three experiments. As for the experimental part: (§1) A human diploid embryonic lung cell line (MRC-5, Bio-Whittaker 72211D) was used to assess the cytotoxic effects towards eukaryotic host cells. MRC-5 cells were seeded at 5,000 cells per well in 100 μl. After 24 hours, the cells were washed and two-fold dilutions of the drug were added in 200 μl standard culture medium (RPMI medium + 5% fetal calf serum) and maintained for five days under 5% CO2 atmosphere. The final DMSO concentration in the culture remained below 0.1%. Untreated cultures were included as controls. The cytotoxicity was determined using the colorimetric MTT assay according to the manufacturer's recommendations (Cell proliferation kit I, Roche Applied Science, France) and scored as a percentage of reduction in absorption at 540 nm of treated cultures versus untreated control cultures. […] The results were expressed as the mean ± the standard deviations determined from several independent experiments. The index of selectivity was defined as the ratio of the IC50 value on MRC-5 to that of P. falciparum.

The next data set relates to human MRC-5 cells. Kind of data set: Cytotoxicity test upon human embryonic cells (MTT). Format: cell-based. Conditions: Homo sapiens, MRC5, 120 h; MRC-5, five days, MTT; mean of three experiments. As for the experimental part:
as §1

Data set [2] has as its system chloroquine-resistant strain FcB1 of P. falciparum. Kind of data set: Anti-Plasmodium activity, [3H]hypoxanthine microdilution on asynchronous cultures. Format: cell-based, Plasmodium falciparum. Conditions: Plasmodium falciparum; strain FcB1, asynchronous cultures, n = 3; read-out: IC50. As for the experimental part:
P. falciparum strains (FcB1/Colombia, K1/Thailand, F32/Tanzania, W2/Indochina) were maintained in continuous culture on human erythrocytes in RPMI medium containing 7% (v/v) heat-inactivated human serum under an atmosphere of 3% CO2, 6% O2, 91% N2, at 37°C, as described by Trager and Jensen. Parasite synchronization was performed successively by treatment with 5% (w/v) sorbitol and by concentration in gelatin solution as previously described.
Drug susceptibility assays were performed using a modification of the semi automated microdilution technique of Desjardins et al.. Stock solutions of test compounds were prepared in DMSO. Drug solutions were serially diluted twofold with 100 μl culture medium in 96-well plates. Asynchronous parasite cultures (100 μl, 1 % parasitemia and 1 % final hematocrite) were added to each well and incubated for 24 hours at 37°C prior to the addition of 0.5 μCi of [^3H] hypoxanthine (Amersham, France, 1 to 5 Ci.mmol/ml) per well. After a further incubation of 24 hour, plates were frozen and thawed. Cell lysates were then collected onto glass-filter papers and counted in a liquid scintillation spectrometer. The growth inhibition for each drug concentration was determined by comparison of the radioactivity incorporated in the treated culture with that in the control culture (having the same final % of DMSO) maintained on the same plate. The concentration causing 50% growth inhibition (IC50) and 90% growth (IC90) were obtained from the drug concentration-response curve and the results were expressed as the means ± the standard deviations determined from several independent experiments.

For a further data set, the system named is P. falciparum. Also on record: method as in PMID 7568097. Conditions: synchronized cultures at the ring stage; read-out: IC50 previously reported; cited from earlier work.
Data set [3] concerns P. falciparum synchronized cultures. Kind of data set: Parasite stage-specific inhibitory effects and reversibility (Giemsa-stained smears). Format: cell-based, Plasmodium falciparum. Conditions: rings, 24 hours incubation with 5 μM, then drug removal (data not shown).
The test system of data set [4] is P. falciparum sphingomyelin synthase activity. The data set is described as follows: Sphingomyelin synthase activity assay in trophozoite cultures (NBD-C6-ceramide). Conditions: trophozoites 20-30 h, 0-500 μM drug, 10 μM NBD-C6-ceramide, 60 min, 37°C. Format: cell-based, Plasmodium falciparum. The protocol:
SPM synthase activity was measured as described by Haldar et al.. Briefly, assays were performed on P. falciparum cultures at the trophozoite stage (20–30 h old parasites). 400 μl of culture (1 × 10^8 parasites) were incubated for 60 min at 37°C with 10 μM NBD-C6-ceramide and 0 to 500 μM PPMP or AD2646. Cells were then lysed by freezing and thawing of the culture. Lipids were extracted by a modification of the method of Bligh and Dyer. To each sample, three volumes of a CH3OH/CHCl3 mixture (1:2, v:v) were added and the mixture vortexed for one min. Organic and aqueous phases were separated by centrifugation (12,000 × g, five min) and the organic phase was dried. Lipids were dissolved in 15 μl ethanol and analysed by thin layer chromatography on HPTLC plates (Silica gel 60 F254, Merck, Darmstadt, Germany) in CH3OH/[…]/NH4OH (75:25:4, v:v:v). For qualitative analyses, the fluorescent lipids were detected under UV and for quantitative analyses, the fluorescent lipid spots were scraped, eluted in one ml methanol and quantified at an excitation of 470 nm and an emission of 530 nm in a spectrofluorometer. The percentage of SPM synthase activity for each drug concentration was determined by comparison of the fluorescence quantified in the analog-treated culture with that in the control culture (without drug).

In data set [5] the test system is malaria-induced anion channel. The data set is described as follows: Malaria-induced anion channel activity, whole-cell patch-clamp. Format: cell-based, Plasmodium falciparum. Conditions: infected erythrocytes, 24 hours, 250 nM AD2646 or 10 μM PPMP, whole-cell patch-clamp (unpublished data). The source says: Sphingolipids preferentially interact with cholesterol in membranes, especially in detergent-resistant microdomains (DRMs or rafts). Rafts have been described in Plasmodium and are involved, at least, in the uptake of erythrocyte raft proteins and maintenance of the parasitophorous vacuole containing the parasite, inside the erythrocyte. This interaction implies : 1) van der Waals interactions between the saturated acyl chain and sphingoid moiety of sphingolipids and the rigid planar tetracyclic rings of cholesterol and 2) hydrogen bonds between the 3-β hydroxyl group of cholesterol and the fatty acyl carbonyl group resulting from the amide linkage with the sphingoid moiety. The amide-linked fatty acid function seems to have a profound stabilizing effect on cholesterol-sphingolipid interactions. It could be hypothesized that in a membrane context, methylene analogs might have a destabilizing effect on the cholesterol-sphingolipid interactions and, in consequence, modifications of membrane properties. Indeed, P. falciparum growth is characterized by a setting up of new permeabilities of the infected-erythrocyte membrane. Although the biochemical nature of these new permeabilities is still unknown, they have been characterized from an electrophysiological point of view and involve a malaria-induced anion channel. […]
For orientation: Patch clamp records ionic current or voltage across a cell membrane.

For data set [6], the system named is tubovesicular network of P. falciparum. Kind of data set: Tubovesicular network formation, BODIPY-FL-C5-ceramide fluorescence microscopy. The data set is classed as cell-based, Plasmodium falciparum. The protocol:
Infected erythrocytes treated with or without ceramide analogs were incubated for 30 min, at 37°C, in culture medium containing 10 μM BODIPY-FL-C5-ceramide, washed three times with culture medium without serum and fixed overnight, at 4°C, in 3.7% formaldehyde/0.05% glutaraldehyde. Cells were mounted on poly-L-lysine coated slides and viewed using a Nikon Eclipse TE 300 DV inverted microscope with an 100X oil objective mounted on a piezzo electric device using appropriate fluorescence emission filters. Image acquisition (z-series) was performed with a back illuminated cooled detector (CCD EEV: NTE/CCD-1024-EB, Roper Scientific, France) using a 0.2 μm step. Data acquisition and image deconvolution process were performed with Metamorph software (Universal Imaging Corporation, Roper Scientific, France). The images presented correspond to the maximum intensity projection of the deconvoluted z-series.

By IC90 is commonly meant the concentration needed for an effect of 90%. A higher IC90 goes with weaker potency. Usually IC50 stands for the concentration that inhibits the measured activity by half. `CCCCCCCCCCCCCCCC(=O)NC(CN1CCOCC1)C(O)c1ccccc1` (stereo not drawn) [PPMP, d,1-threo-1-phenyl-2-palmitoylamino-3-morpholino-1-propanol, reference compound] yielded an IC90 at 5 days in data set [1] of 12.4 µM. The results for the IC50 (in the data set with human MRC-5 cells; in data set [2]; in the data set on P. falciparum) were 7.5 µM, 9 ± 1.7 µM and 0.85 µM, respectively. In addition, the “reversibility of ring-stage block” value in data set [3] is on record as “recovered to a normal growth after drug removal”. For the same compound, the “inhibition of SPM synthase activity (shape of curve)” value in data set [4] is reported as “biphasic inhibition curve”. Also, in data set [5], the “induced anion channel activity” value is given as “did not modulate significantly the induced channel activity”. In addition, the TVN formation entry in data set [6] (rings incubated 24 hours with 60 nM AD2646 or 5 μM PPMP) was “no TVN was observed”. The ring development result in data set [6] (rings, 24 hours, 5 μM) was “totally inhibited”.
